Measurements taken from patent US8012949B2, “Bisphosphonate compounds and methods with enhanced potency for multiple targets including FPPS, GGPPS, and DPPS” (The Board of Trustees of the University of Illinois, priority 2004, dated 2011).
Where two headings read alike, the source gives them in different places.

How the values were obtained:
[1] = system: NCI-H460 (lung large cell); experiment: NCI-H460 cell growth inhibition (MTT); assay type: cell-based, human; conditions: Table 1, experimental
Excerpt: (§1) Cell Growth Inhibition Assays. […] A broth microdilution method was used to determine IC50 values for growth inhibition by each bisphosphonate. […] NBPs were typically initially dissolved in H2O (0.01 M) while NNBPs were typically dissolved in DMSO (0.01 M).
(§2) GraphPad PRISM® version 4.0 software for windows (GraphPad Software Inc., San Diego, Calif., www.graphpad.com) was used to fit the data to a rectangular hyperbolic function: I=(ImaxC)/(IC50+C); […]

[2] = system: MCF-7 (breast adenocarcinoma); experiment: MCF-7 cell growth inhibition (MTT), incl. FOH/GGOH rescue; assay type: cell-based, human; conditions: for MCF7 Cell pIC50: Table 3, determined in this work; for IC50: Homo sapiens
Excerpt: as §1
GraphPad PRISM® version 4.0 software for windows (GraphPad Software Inc., San Diego, Calif., www.graphpad.com) was used to fit the data to a rectangular hyperbolic function: I=(ImaxC)/(IC50+C);
For the “rescue” experiments, stock solutions of FOH or GGOH were prepared (in ethanol) and the requisite amounts added to the incubation media to produce a fixed 20 μM concentration.

[3] = system: SF-268 (central nervous system glioblastoma); experiment: SF-268 cell growth inhibition (MTT); assay type: cell-based, human; conditions: Table 1, experimental
Excerpt: as §1, §2

human DPPS = biological target: T1, human DPPS (Homo sapiens, UniProt Q5T2R2); experiment: human DPPS enzyme inhibition; assay type: biochemical; conditions: Table 1, experimental
T1 construct: made in house
T1 sequence (Q5T2R2 1-415): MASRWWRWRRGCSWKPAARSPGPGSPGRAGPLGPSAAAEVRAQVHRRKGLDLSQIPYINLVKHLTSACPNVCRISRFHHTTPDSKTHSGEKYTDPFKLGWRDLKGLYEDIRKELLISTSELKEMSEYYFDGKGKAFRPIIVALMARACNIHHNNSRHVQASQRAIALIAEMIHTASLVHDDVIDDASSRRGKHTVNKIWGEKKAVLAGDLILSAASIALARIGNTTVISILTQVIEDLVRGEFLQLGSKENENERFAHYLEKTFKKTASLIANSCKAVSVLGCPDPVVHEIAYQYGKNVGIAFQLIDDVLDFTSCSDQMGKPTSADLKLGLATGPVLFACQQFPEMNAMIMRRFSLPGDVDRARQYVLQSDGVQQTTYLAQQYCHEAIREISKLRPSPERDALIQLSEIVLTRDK
T1 sequence (Q86YH6 1-399 partner): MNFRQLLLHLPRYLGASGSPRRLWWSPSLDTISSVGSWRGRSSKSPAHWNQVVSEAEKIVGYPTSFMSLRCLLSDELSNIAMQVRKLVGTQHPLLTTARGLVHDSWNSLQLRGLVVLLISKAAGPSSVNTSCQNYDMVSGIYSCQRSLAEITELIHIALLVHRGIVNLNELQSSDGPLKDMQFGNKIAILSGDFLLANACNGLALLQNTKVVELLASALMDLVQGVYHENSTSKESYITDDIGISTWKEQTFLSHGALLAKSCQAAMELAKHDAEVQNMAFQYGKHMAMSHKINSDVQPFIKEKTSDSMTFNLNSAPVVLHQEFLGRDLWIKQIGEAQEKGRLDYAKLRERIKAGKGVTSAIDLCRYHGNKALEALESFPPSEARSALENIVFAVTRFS
Excerpt: To test our polypharmaceutical hypothesis, we expressed three enzymes: human FPPS, GGPPS and DPPS, and tested each for their inhibition by a series of bisphosphonates.

Vγ2Vδ2 T cells = experiment: γδ T cell activation (TNF-α release and proliferation); assay type: cell-based, human; conditions: Table 2, -log10(value, M); for EC50: Homo sapiens, T-cell, read-out: γδ T Cell Avg pED50 (converted)
Experimental: γδ T Cell Assays. Vγ2Vδ2 T cell TNF-α release and proliferation were performed basically as described previously^1. Briefly, to measure bioactivity for Vγ2Vδ2 T cells, the CD4^+ JN.24, CD4^+ HF.2, CD8αα^+ 12G12, or the CD4^−8^− HD.108 Vγ2Vδ2 T cell clones were stimulated with phosphoantigens in the presence of CP.EBV (an EBV transformed B cell line) for CD4^+ clones or Va-2 (a transformed fibroblast) for CD8αα^+ and CD4^−8^− clones. CP.EBV and Va-2 were fixed with 0.05% glutaraldehyde (EM grade, Sigma, Mo.) for use as APCs. […] Curve fitting minima for each experiment (e.g. TNF-α release from JN.24 cells) were determined using the Global Fitting technique, as implemented in Prism 4.0. Curve fitting maxima were optimized for each individual compound without the use of any constraints.

[4] = MCF7, Table 1, experimental, read-out: MCF-7 pIC50 (converted)
[5] = MCF7, Table 2, -log10(value, M), read-out: MCF-7 Cell pIC50 (converted)

Row | Compound | MCF7 Cell pIC50 [2] | MCF-7 Cell pIC50 (M) ([2]; Table 2, -log10(value, M)) | γδ T Cell Avg pED50 (M) (Vγ2Vδ2 T cells) | other results
1 | NCCCC(O)(P(=O)(O)O)P(=O)(O)O [BPH-1, reference compound] | 3.31 |  |  | NCI-H460 pIC50 (M) [1]: 3.5 M; MCF-7 pIC50 (M) ([2]; Table 1, experimental): 3.3 M; SF-268 pIC50 (M) [3]: 3.5 M; DPPS pKi (human DPPS): 6.3
2 | O=P(O)(O)C(O)(Cc1cccnc1)P(=O)(O)O [BPH-2] |  | 3.13 M | 4.29 M | NCI-H460 pIC50 (M) [1]: 3.7 M; MCF-7 pIC50 (M) ([2]; Table 1, experimental): 3.8 M; SF-268 pIC50 (M) [3]: 3.9 M; DPPS pKi (human DPPS): 7.3
3 | NCCC(O)(P(=O)(O)O)P(=O)(O)O [BPH-5, reference compound] | 3.85 |  |  | NCI-H460 pIC50 (M) [1]: 4.0 M; MCF-7 pIC50 (M) ([2]; Table 1, experimental): 3.9 M; SF-268 pIC50 (M) [3]: 3.5 M; DPPS pKi (human DPPS): 6.3
4 | O=P(O)(O)C(O)(Cc1c[nH]cn1)P(=O)(O)O [BPH-18, reference compound] | 5.41 |  |  | 
5 | CCCCCN(C)CCC(O)(P(=O)(O)O)P(=O)(O)O [BPH-24, reference compound] |  |  |  | NCI-H460 pIC50 (M) [1]: 3.7 M; MCF-7 pIC50 (M) ([2]; Table 1, experimental): 3.7 M; SF-268 pIC50 (M) [3]: 3.8 M; DPPS pKi (human DPPS): 7.3
6 | O=P(O)(O)C(NC1CCCCCC1)P(=O)(O)O [BPH-31, reference compound] | 4.30 |  |  | 
7 | O=P(O)(O)C(N1CCCCCC1)P(=O)(O)O [BPH-57, reference compound] | 3.60 |  |  | 
8 | O=P(O)(O)C(Cc1nccs1)P(=O)(O)O [BPH-58, reference compound] | 3.48 |  |  | 
9 | O=P(O)(O)C(N1CCCCC1)P(=O)(O)O [BPH-72, reference compound] | 3.34 |  |  | 
10 | O=P(O)(O)C(O)(Cn1ccnc1)P(=O)(O)O [BPH-91, reference compound] | 4.81 |  |  | NCI-H460 pIC50 (M) [1]: 4.8 M; MCF-7 pIC50 (M) ([2]; Table 1, experimental): 4.7 M; SF-268 pIC50 (M) [3]: 4.8 M; DPPS pKi (human DPPS): 7.4
11 | CN(CCc1ccccc1)CCC(O)(P(=O)(O)O)P(=O)(O)O [BPH-208, reference compound] | 4.38 |  |  | 
12 | CN(CCCc1ccccc1)CCC(O)(P(=O)(O)O)P(=O)(O)O [BPH-209, reference compound] | 4.01 |  |  | 
13 | CN(CCCCc1ccccc1)CCC(O)(P(=O)(O)O)P(=O)(O)O [BPH-210, reference compound] | 4.08 |  |  | 
14 | CN(CCOc1ccccc1)CCC(O)(P(=O)(O)O)P(=O)(O)O [BPH-219, reference compound] | 4.93 |  |  | 
15 | O=P(O)(O)C(O)(Cc1cnc2ccccn12)P(=O)(O)O [BPH-261] |  |  |  | NCI-H460 pIC50 (M) [1]: 4.8 M; MCF-7 pIC50 (M) ([2]; Table 1, experimental): 4.8 M; SF-268 pIC50 (M) [3]: 4.9 M; DPPS pKi (human DPPS): 6.8
16 | O=P(O)(O)C(Cc1cccnc1)P(=O)(O)O [BPH-290] |  | 3.47 M | 4.21 M | 
17 | O=P(O)(O)C(O)(C[n+]1cccc(F)c1)P(=O)(O)O [BPH-461, 3-fluoro-1-(2-hydroxy-2,2-bisphosphonoethyl)-pyridinium] |  | 4.34 M | 4.16 M | 
18 | O=P([O-])(O)C(C[n+]1ccccc1)P(=O)(O)O (stereo not drawn) [BPH-470] |  | 4.14 M | 4.12 M | 
19 | CCc1ccc[n+](CC(P(=O)([O-])O)P(=O)(O)O)c1 (stereo not drawn) [BPH-475] |  | 4.37 M | 3.94 M | 
20 | CCCCc1ccc[n+](CC(P(=O)([O-])O)P(=O)(O)O)c1 (stereo not drawn) [BPH-476] |  | 4.58 M | 4.00 M | 

Row | Compound | MCF7 Cell pIC50 [2] | MCF-7 Cell pIC50 (M) ([2]; Table 2, -log10(value, M)) | γδ T Cell Avg pED50 (M) (Vγ2Vδ2 T cells) | other results
21 | O=P([O-])(O)C(C[n+]1cccc(F)c1)P(=O)(O)O (stereo not drawn) [BPH-477] |  | 4.77 M | 3.80 M | 
22 | O=P([O-])(O)C(C[n+]1cccc(Cc2ccccc2)c1)P(=O)(O)O (stereo not drawn) [BPH-480] |  | 3.42 M | 3.33 M | 
23 | O=P([O-])(O)C(C[n+]1ccc(Cc2ccccc2)cc1)P(=O)(O)O (stereo not drawn) [BPH-481] |  | 3.90 M | 3.45 M | 
24 | CC(C)(C)C(=O)OCOP(=O)(O)C(C[n+]1ccccc1)P(=O)([O-])O (stereo not drawn) [BPH-656] |  | 4.88 M | 4.29 M | 
25 | CC(C)(C)C(=O)OCOP(=O)(O)C(C[n+]1cccc(F)c1)P(=O)([O-])O (stereo not drawn) [BPH-669] |  | 4.75 M | 4.49 M | 
26 | CC(C)(C)C(=O)OCOP(=O)(O)C(O)(C[n+]1cccc(F)c1)P(=O)([O-])O (stereo not drawn) [BPH-670] |  | 4.64 M | 4.16 M | 
27 | CCCCCCCCCCCCc1ccc[n+](CC(P(=O)([O-])O)P(=O)(O)O)c1 (stereo not drawn) [BPH-677] |  | 4.34 M | 4.88 M | 
28 | O=P([O-])(O)C(C[S+]1CCCC1)P(=O)(O)O (stereo not drawn) [BPH-682] |  | 4.02 M | 3.84 M | 
29 | CCCCCCCC[S+](C)CC(P(=O)([O-])O)P(=O)(O)O (stereo not drawn) [BPH-683] |  |  |  | IC50 ([1]; Homo sapiens, NCI-H460, read-out: NCI-H460 pIC50 (converted)): 15.8 µM; IC50 [2, 4]: 20 µM; IC50 [2, 5]: 6.76 µM; EC50 (Vγ2Vδ2 T cells): 107 µM; IC50 ([3]; Homo sapiens, SF-268, read-out: SF-268 pIC50 (converted)): 12.6 µM; Ki (human DPPS; read-out: DPPS_pKi (converted)): 0.0631 µM
30 | CCC[S+](C)CC(P(=O)([O-])O)P(=O)(O)O (stereo not drawn) [BPH-685] |  | 4.02 M | 3.81 M | NCI-H460 pIC50 (M) [1]: 3.9 M; MCF-7 pIC50 (M) ([2]; Table 1, experimental): 3.6 M; SF-268 pIC50 (M) [3]: 3.7 M; DPPS pKi (human DPPS): 6.7
31 | C[S+](CCCc1ccccc1)CC(P(=O)([O-])O)P(=O)(O)O (stereo not drawn) [BPH-686] |  | 4.24 M | 3.81 M | 
32 | CCCCCCCCCC[S+](C)CC(P(=O)([O-])O)P(=O)(O)O (stereo not drawn) [BPH-687] |  | 6.20 M | 5.09 M | 
33 | CCCCCCCCCCCC[S+](C)CC(P(=O)([O-])O)P(=O)(O)O (stereo not drawn) [BPH-688] |  |  |  | IC50 [2, 4]: 6.31 µM; IC50 [2, 5]: 0.501 µM; EC50 (Vγ2Vδ2 T cells): 5.62 µM
34 | CCCN(C)CC(P(=O)(O)O)P(=O)(O)O [BPH-693] |  | 5.32 M | 5.28 M | 
35 | CCCCCCCCCCCCCCCC[S+](C)CC(P(=O)([O-])O)P(=O)(O)O (stereo not drawn) [BPH-695] |  | 5.95 M | 5.68 M | 
36 | CCCCCCCCCCCCCCCCCC[S+](C)CC(P(=O)([O-])O)P(=O)(O)O (stereo not drawn) [BPH-696] |  | 5.85 M | 4.63 M | 
37 | CCCCCCCCOc1ccc[n+](CC(P(=O)([O-])O)P(=O)(O)O)c1 (stereo not drawn) [BPH-714] |  | 6.82 M | 5.29 M | 
38 | CCCCOc1ccc[n+](CC(P(=O)([O-])O)P(=O)(O)O)c1 (stereo not drawn) [BPH-721] |  | 4.70 M | 4.10 M | 
39 | CCCCCCOc1ccc[n+](CC(P(=O)([O-])O)P(=O)(O)O)c1 (stereo not drawn) [BPH-723] |  | 5.76 M | 4.44 M | 
40 | NCCC(O)(P(=O)(O)O)P(=O)(O)O [pamidronate, reference compound] |  |  |  | IC50 ([2]; MCF7, FIG. 2A, read-out: IC50, MCF-7 tumor cell growth inhibition): ~300 µM
